Patent US20210085640A1, “ACYLATED CATECHIN POLYPHENOLS AND METHODS OF THEIR USE FOR THE TREATMENT OF CANCER” (Flagship Pioneering Innovations V, Inc., priority 2018, published 2021)

Columns and labels:
Format in all cases: cell-based
[1] = Human Regulatory T Cell Differentiation Assay; conditions: human, primary naïve CD4+ T cells isolated from PBMCs, 1 uM, read-out: Cell viability % DMSO
Procedure: Peripheral blood mononuclear cells (PBMCs) from whole blood donated by health volunteers were separated by Ficoll-Paque gradient centrifugation and naïve CD4^+ T cells were subsequently isolated using magnet beads (EasySep™ Human Naïve CD4^+ T Cell Isolation Kit, Cambridge, Mass.). For regulatory T cell (Treg) differentiation assay, naïve CD4^+ T cells were cultured (1-10×10^4 cells) in CTS OpTmizer medium for 6 days and stimulated with 5 ng/ml TGF-β, 100 U/ml IL-2, and ImmunoCult™ Human […] T Cell Activator; Stemcell #10990) with/without Compounds. Cell viability was determined using a viability dye (eBioscience Fixable Viability Dye eFluor 780: ThermoFisher 65-0865-14) at 1:500 dilution. The cells were gated for Treg, defined as Live, CD11c^−, CD14^−, CD19^−, CD8^−, CD4^+, CD3^+, CD25^+, FOXP3^+. Percent (%) Tregs were calculated as percentage of CD4^+, CD25^+, FOXP3^+ cells over total CD4^+ T cells. Statistical analysis was performed with GraphPad Prism Software Using One-Way ANOVA.

AGS stomach cancer cells = assay: Cancer cell survival (CellTiter-Glo), AGS
How it was run: (§1)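 Cells seeded at 4×10^3 cells/well, incubated overnight, then treated in triplicate at nine concentrations for 72 h at 37 C, 5% CO2. Viability by CellTiter-Glo luminescence, survival % normalized to untreated and medium controls; IC50 derived.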

MCF7 breast cancer cells = assay: Cancer cell survival (CellTiter-Glo), MCF7; conditions: Homo sapiens, 72 h
How it was run: as §1

T24 bladder cancer cells = assay: Cancer cell survival (CellTiter-Glo), T24; conditions: Homo sapiens
How it was run: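 T24 cells seeded at 4×10^3 cells/well overnight, then exposed 72 h at 37 C, 5% CO2 to nine concentrations in triplicate. Survival measured by CellTiter-Glo luminescence relative to untreated and medium controls; IC50 derived.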

[2] = system: Daudi lymphoma cancer cells; assay: Cancer cell survival (CellTiter-Glo), Daudi; conditions: Homo sapiens, 72 h
How it was run: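 Daudi cells (4×10^3/well) were exposed for 72 h at 37 °C to nine concentrations of compound, added as 10× solutions spanning 1 μM–10 mM (fatty acids) or 100 nM–1 mM (others). CellTiter-Glo luminescence gave % survival versus untreated, medium-blank corrected; IC50 derived.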

A549 lung cancer cells = assay: Cancer cell survival (CellTiter-Glo), A549; conditions: Homo sapiens, 72 h
How it was run: as §1

[3] = system: HCT 116 colorectal cancer cells; assay: Cancer cell survival (CellTiter-Glo), HCT 116; conditions: Homo sapiens, HCT 116 cells, 72 h
How it was run: as §1

[4] = system: PC-3 prostate cancer cells; assay: Cancer cell survival (CellTiter-Glo), PC-3; conditions: Homo sapiens, PC-3 cells, 72 h
How it was run: as §1

A-431 skin cancer cells = assay: Cancer cell survival (CellTiter-Glo), A-431; conditions: Homo sapiens, A-431 cells, 72 h
How it was run: as §1

[5] = 101 nM, read-out: Cell survival at given concentration
[6] = 318 nM, read-out: Cell survival at given concentration
[7] = 1 μM, read-out: Cell survival at given concentration
[8] = 3 μM, read-out: Cell survival at given concentration
[9] = 10 μM, read-out: Cell survival at given concentration
[10] = 32 μM, read-out: Cell survival at given concentration
[11] = 100 μM, read-out: Cell survival at given concentration
[12] = 316 μM, read-out: Cell survival at given concentration
[13] = 1000 μM, read-out: Cell survival at given concentration

For `Oc1ccc(C=Cc2cc(O)cc(O)c2)cc1` [resveratrol], the viability at 6 days, 1 µM [1] was < 90%, the viability at 0.101 µM (AGS stomach cancer cells; 72 h, 101 nM, read-out: Cell survival at given concentration) was 100% and the viability at 0.318 µM (AGS stomach cancer cells; 72 h, 318 nM, read-out: Cell survival at given concentration) was 95%. For the same compound, the viability at 1 µM (AGS stomach cancer cells; 72 h, 1 μM, Table 10.1, read-out: Cell survival at given concentration) was 101%, the viability at 3 µM (AGS stomach cancer cells; 72 h, 3 μM, Table 10.1, read-out: Cell survival at given concentration) was 98% and the viability at 10 µM (AGS stomach cancer cells; 72 h, 10 μM, Table 10.1, read-out: Cell survival at given concentration) was 100%. For the same compound, the viability at 32 µM (AGS stomach cancer cells; 72 h, 32 μM, Table 10.1, read-out: Cell survival at given concentration) was 101%, the viability at 100 µM (AGS stomach cancer cells; 72 h, 100 μM, Table 10.1, read-out: Cell survival at given concentration) was 94% and the viability at 316 µM (AGS stomach cancer cells; 72 h, 316 μM, read-out: Cell survival at given concentration) was 33%. For the same compound, the viability at 1000 µM (AGS stomach cancer cells; 72 h, 1000 μM, read-out: Cell survival at given concentration) was 0%, the IC50 (AGS stomach cancer cells; Table 10.1) was 252 µM and the viability at 0.101 µM (MCF7 breast cancer cells; [5]) was 94%. For the same compound, the viability at 0.318 µM (MCF7 breast cancer cells; [6]) was 96%, the viability at 1 µM (MCF7 breast cancer cells; [7]) was 99% and the viability at 3 µM (MCF7 breast cancer cells; [8]) was 99%. For the same compound, the viability at 10 µM (MCF7 breast cancer cells; [9]) was 95%, the viability at 32 µM (MCF7 breast cancer cells; [10]) was 96% and the viability at 100 µM (MCF7 breast cancer cells; [11]) was 85%. The viability at 316 µM (MCF7 breast cancer cells; [12]) was 27%, the viability at 1000 µM (MCF7 breast cancer cells; [13]) was 0% and the IC50 (MCF7 breast cancer cells; Table 5.1) was 212 µM. The viability at 0.101 µM (T24 bladder cancer cells; T-24, 101 nM, 72 h, read-out: Cell survival at given concentration) was 100%, the viability at 0.318 µM (T24 bladder cancer cells; T-24, 318 nM, 72 h, read-out: Cell survival at given concentration) was 102% and the viability at 1 µM (T24 bladder cancer cells; T-24, 1 μM, 72 h, read-out: Cell survival at given concentration) was 100%. The viability at 3 µM (T24 bladder cancer cells; T-24, 3 μM, 72 h, read-out: Cell survival at given concentration) was 101%, the viability at 10 µM (T24 bladder cancer cells; T-24, 10 μM, 72 h, read-out: Cell survival at given concentration) was 92% and the viability at 32 µM (T24 bladder cancer cells; T-24, 32 μM, 72 h, read-out: Cell survival at given concentration) was 1%. For the same compound, the viability at 100 µM (T24 bladder cancer cells; T-24, 100 μM, 72 h, read-out: Cell survival at given concentration) was 0%, the viability at 316 µM (T24 bladder cancer cells; T-24, 316 μM, 72 h, read-out: Cell survival at given concentration) was 0% and the viability at 1000 µM (T24 bladder cancer cells; T-24, 1000 μM, 72 h, read-out: Cell survival at given concentration) was 0%. The IC50 (T24 bladder cancer cells; T-24, 72 h, Table 3.1, read-out: 1050) was 15.1 µM, the viability at 0.101 µM [2, 5] was 100% and the viability at 0.318 µM [2, 6] was 101%. It also gave a viability at 1 µM [2, 7] of 102%, a viability at 3 µM [2, 8] of 102% and a viability at 10 µM [2, 9] of 101%. It also gave a viability at 32 µM [2, 10] of 14%, a viability at 100 µM [2, 11] of 0% and a viability at 316 µM [2, 12] of 0%. It also gave a viability at 1000 µM [2, 13] of 0%, an IC50 ([2]; Table 4.1) of 23.9 µM and a viability at 0.101 µM (A549 lung cancer cells; [5]) of 98%. For the same compound, the viability at 0.318 µM (A549 lung cancer cells; [6]) was 99%, the viability at 1 µM (A549 lung cancer cells; [7]) was 98% and the viability at 3 µM (A549 lung cancer cells; [8]) was 98%. It also gave a viability at 10 µM (A549 lung cancer cells; [9]) of 98%, a viability at 32 µM (A549 lung cancer cells; [10]) of 96% and a viability at 100 µM (A549 lung cancer cells; [11]) of 88%. For the same compound, the viability at 316 µM (A549 lung cancer cells; [12]) was 50%, the viability at 1000 µM (A549 lung cancer cells; [13]) was 0% and the IC50 (A549 lung cancer cells; Table 7.1) was 317 µM. The viability at 0.101 µM [3, 5] was 103%, the viability at 0.318 µM [3, 6] was 98% and the viability at 1 µM [3, 7] was 98%. For the same compound, the viability at 3 µM [3, 8] was 101%, the viability at 10 µM [3, 9] was 98% and the viability at 32 µM [3, 10] was 65%. The viability at 100 µM [3, 11] was 0%, the viability at 316 µM [3, 12] was 0% and the viability at 1000 µM [3, 13] was 0%. For the same compound, the IC50 ([3]; Table 6.1) was 37.4 µM, the viability at 0.101 µM [4, 5] was 101% and the viability at 0.318 µM [4, 6] was 102%. For the same compound, the viability at 1 µM [4, 7] was 101%, the viability at 3 µM [4, 8] was 102% and the viability at 10 µM [4, 9] was 103%. The viability at 32 µM [4, 10] was 96%, the viability at 100 µM [4, 11] was 95% and the viability at 316 µM [4, 12] was 32%. It also gave a viability at 1000 µM [4, 13] of 0%, an IC50 ([4]; Table 8.1) of 248 µM and a viability at 0.101 µM (A-431 skin cancer cells; [5]) of 101%. It also gave a viability at 0.318 µM (A-431 skin cancer cells; [6]) of 101%, a viability at 1 µM (A-431 skin cancer cells; [7]) of 102% and a viability at 3 µM (A-431 skin cancer cells; [8]) of 102%. The viability at 10 µM (A-431 skin cancer cells; [9]) was 98%, the viability at 32 µM (A-431 skin cancer cells; [10]) was 87% and the viability at 100 µM (A-431 skin cancer cells; [11]) was 65%. It also gave a viability at 316 µM (A-431 skin cancer cells; [12]) of 13%, a viability at 1000 µM (A-431 skin cancer cells; [13]) of 0% and an IC50 (A-431 skin cancer cells; Table 9.1) of 132 µM.
